Measured values taken from patent US4241069A, “3-Methylene flavanones and 3-methylene chromanones” (Miles Laboratories, Inc., priority 1979, dated 1980).
Converted amounts (≈) assume the structure as drawn.

Experiments:
[1] = system: Staphylococcus aureus ATCC 6538; assay: MIC, agar incorporation method; type: cell-based; conditions: Staphylococcus aureus, ATCC6538; S. aureus ATCC 6538; 32° C., 24 hours; read-out: Minimal Inhibitory Concentration
Protocol: (§1) The compounds of the present invention were tested for their ability to inhibit the growth of microorganisms by in vitro tests. Generally the in vitro tests involve growing representative microorganisms under conditions favorable to such growth and measuring the effectiveness of one or more compounds in inhibiting or destroying the growth of the microorganisms. The microorganisms used include representative bacteria, fungi and yeasts.
(§2) A representative selection of the test microorganisms were cultured in a nutrient broth, such as, for example, Eugon, commercially available from Difco Laboratories, Detroit, Michigan. Bacteria and Candida species were cultured for 24 hours at 32°-37° C. and fungi were cultured for approximately one week at 32° C. Inocula were prepared by suspending the growth or spores from a slant culture in sufficient sterile normal (0.9 percent) saline or Eugon broth, to yield cell or spore concentrations of 1,000,000 cells per milliliter. Anaerobic bacteria were cultured for 48-72 hours at 32°-37° C. in a thioglycollate containing medium, for example, Fluid Thioglycollate medium or NIH thioglycollate broth, commercially available from Difco Laboratories.
(§3) The compounds of the present invention were tested for activity against bacteria, yeasts and fungi by the agar incorporation method described below. MA 1347, 3-(dimethylaminomethyl)flavanone (disclosed in U.S. Pat. No. 3,753,985) was used as a comparative standard along with controls for each solvent system used.
(§4) A series of agar plates containing two-fold dilutions of each compound to be tested, ranging in concentration from 100 to 3.1 mcg/ml of agar medium was prepared. Aliquots of each concentration (100, 50, 25, 12.5, 6.2, and 3.1) prepared in N,N-dimethylformamide or 50 percent aqueous DMF were added to liquid Eugon agar at 48° C. (one part test solution to 100 parts agar). In some cases, tests with further dilutions to 0.125 mcg/ml were conducted. The agar medium, containing the 3-methylene flavanone or chromanone compound to be tested, was then dispensed into petri dishes and allowed to solidify. The solidified plates were kept overnight at room temperatures to dry the surface of the agar.
(§5) The agar plates were then inoculated with a drop of the standardized cell or spore suspension. Inoculated plates were incubated at 32° C. The inhibition end-point or minimum inhibitory concentration (MIC) shown in Table D represent the lowest concentration of test compound which inhibited the growth of the microorganism. Visual determination of growth inhibition was used. Bacteria and yeast end-points were determined after 24 hours incubation; molds, dermatophytes and anaerobes after 48-72 hours incubation. MIC values shown as ranges represent the extremes found in repeat assays. Virtually all such values were written plus or minus one dilution, the accepted variation of a two-fold dilution assay.

T. mentagrophytes TM-2 = assay: MIC, agar incorporation method; type: cell-based; conditions: Trichophyton mentagrophytes, TM2, 32° C., 48-72 hours, read-out: Minimal Inhibitory Concentration
Protocol: as §1, §2, §3, §4, §5

C. krusei VM 29B = assay: MIC, agar incorporation method; type: cell-based; conditions: Pichia kudriavzevii, VM29B; 32° C., 24 hours; read-out: Minimal Inhibitory Concentration
Protocol: as §1, §2, §3, §4, §5

C. tropicalis NRRL Y1410 = assay: MIC, agar incorporation method; type: cell-based; conditions: Candida tropicalis, NRRLY1410; 32° C., 24 hours; read-out: Minimal Inhibitory Concentration
Protocol: as §1, §2, §3, §4, §5

[2] = system: Streptococcus faecalis ATCC 10541; assay: MIC, agar incorporation method; type: cell-based; conditions: Enterococcus faecalis, ATCC10541; 32° C., 24 hours; read-out: Minimal Inhibitory Concentration
Protocol: as §1, §2, §3, §4, §5

T. rubrum ATCC 10218 = assay: MIC, agar incorporation method; type: cell-based; conditions: Trichophyton rubrum, ATCC10218; 32° C., 48-72 hours; read-out: Minimal Inhibitory Concentration
Protocol: as §1, §2, §3, §4, §5

T. mentagrophytes CDC = assay: MIC, agar incorporation method; type: cell-based; conditions: Trichophyton mentagrophytes, 32° C., 48-72 hours, read-out: Minimal Inhibitory Concentration
Protocol: as §1, §2, §3, §4, §5

[3] = system: Trichophyton mentagrophytes ATCC 4807; assay: MIC, agar incorporation method; type: cell-based; conditions: ATCC4807, 32° C., 48-72 hours, read-out: Minimal Inhibitory Concentration
Protocol: as §1, §2, §3, §4, §5

[4] = system: Pseudomonas aeruginosa ATCC 14502; assay: MIC, agar incorporation method; type: cell-based; conditions: ATCC14502, 32° C., 24 hours, read-out: Minimal Inhibitory Concentration
Protocol: as §1, §2, §3, §4, §5

[5] = system: Escherichia coli ATCC 8739; assay: MIC, agar incorporation method; type: cell-based; conditions: ATCC8739, 32° C., 24 hours, read-out: Minimal Inhibitory Concentration
Protocol: as §1, §2, §3, §4, §5

[6] = system: Aspergillus niger ATCC 16404; assay: MIC, agar incorporation method; type: cell-based; conditions: ATCC16404, 32° C., 48-72 hours, read-out: Minimal Inhibitory Concentration
Protocol: as §1, §2, §3, §4, §5

C. guillermondii VM 42 = assay: MIC, agar incorporation method; type: cell-based; conditions: 32° C., 24 hours; read-out: Minimal Inhibitory Concentration
Protocol: as §1, §2, §3, §4, §5

[7] = system: Microsporum gypseum ATCC 14683; assay: MIC, agar incorporation method; type: cell-based; conditions: Nannizzia gypsea, ATCC14683, 32° C., 48-72 hours; read-out: Minimal Inhibitory Concentration
Protocol: as §1, §2, §3, §4, §5

S. aureus NRRL B2747 = assay: MIC, agar incorporation method; type: cell-based, Staphylococcus aureus; conditions: Staphylococcus aureus, NRRLB2747, 32° C., 24 hours, read-out: Minimal Inhibitory Concentration
Protocol: as §1, §2, §3, §4, §5

[8] = system: Propionobacterium acnes ATCC 6919; assay: MIC, agar incorporation method, anaerobic; type: cell-based; conditions: 48 hours at 35° C., GasPak Anaerobic Jar, read-out: Minimal Inhibitory Concentration
Protocol: as §1, §2, §3, §4, §5
*Anaerobic: 48 hours incubation at 35° C. GasPak Anaerobic Jar

A. fumigatus NRRL 165 = assay: MIC, agar incorporation method; type: cell-based; conditions: Aspergillus fumigatus, NRRL165, 32° C., 48-72 hours, read-out: Minimal Inhibitory Concentration
Protocol: as §1, §2, §3, §4, §5

C. albicans NRRL Y-477 = assay: MIC, agar incorporation method; type: cell-based; conditions: Candida albicans, NRRLY477, 32° C., 24 hours, read-out: Minimal Inhibitory Concentration
Protocol: as §1, §2, §3, §4, §5

[9] = system: Candida albicans ATCC 10231; assay: MIC, agar incorporation method; type: cell-based; conditions: ATCC10231, C. albicans ATCC 10231, 32° C., 24 hours, read-out: Minimal Inhibitory Concentration
Protocol: as §1, §2, §3, §4, §5

A. fumigatus NRRL 163 = assay: MIC, agar incorporation method; type: cell-based; conditions: Aspergillus fumigatus, NRRL163, NRRL 163; 32° C., 48-72 hours; read-out: Minimal Inhibitory Concentration
Protocol: as §1, §2, §3, §4, §5

SMILES | MIC [1] | MIC (T. mentagrophytes TM-2) | MIC (C. krusei VM 29B) | MIC (C. tropicalis NRRL Y1410) | MIC [2] | MIC (T. rubrum ATCC 10218) | MIC (T. mentagrophytes CDC) | MIC [3] | MIC [4] | MIC [5] | MIC [6] | MIC (C. guillermondii VM 42) | MIC [7] | MIC (S. aureus NRRL B2747) | MIC [8] | MIC (A. fumigatus NRRL 165) | MIC (C. albicans NRRL Y-477) | MIC [9] | MIC (A. fumigatus NRRL 163)
C=C1C(=O)c2ccccc2OC1c1ccc(C(C)(C)C)cc1 (stereo not drawn) [Ex. 14, 4'-t-butyl-3-methylene flavanone] | ≤ 3.1 µg/mL | 25 µg/mL (≈ 85.5 µM) | 50 µg/mL (≈ 171 µM) | > 100 µg/mL | 25 to 50 µg/mL (≈ 85.5 to 171 µM) | 12.5 to 25 µg/mL (≈ 42.8 to 85.5 µM) | 25 µg/mL (≈ 85.5 µM) | 25 µg/mL (≈ 85.5 µM) | > 100 µg/mL | > 100 µg/mL | 100 µg/mL (≈ 342 µM) | > 100 µg/mL | 12.5 to 25 µg/mL (≈ 42.8 to 85.5 µM) | 3.1 to 6.2 µg/mL (≈ 10.6 to 21.2 µM) | ≤ 100 µg/mL |  |  |  | 
C=C1C(=O)c2ccccc2OC1c1ccc(C#N)cc1 (stereo not drawn) [Ex. 16, 4'-cyano-3-methylene flavanone] | 12.5 µg/mL (≈ 47.8 µM) | 12.5 µg/mL (≈ 47.8 µM) | 50 µg/mL (≈ 191 µM) | 50 µg/mL (≈ 191 µM) | 100 µg/mL (≈ 383 µM) | 6.2 µg/mL (≈ 23.7 µM) | 25 µg/mL (≈ 95.7 µM) | 12.5 µg/mL (≈ 47.8 µM) | > 100 µg/mL | > 100 µg/mL | 50 µg/mL (≈ 191 µM) | 100 µg/mL (≈ 383 µM) | 12.5 µg/mL (≈ 47.8 µM) | 12.5 µg/mL (≈ 47.8 µM) |  | 100 µg/mL (≈ 383 µM) | 50 µg/mL (≈ 191 µM) | 50 µg/mL (≈ 191 µM) | 
C=C1C(=O)c2ccc(OC)cc2OC1c1ccc(Cl)cc1 (stereo not drawn) [Ex. 18, 4'-chloro-7-methoxy-3-methylene flavanone] | ≤ 3.1 µg/mL | 12.5 µg/mL (≈ 41.6 µM) | 25 µg/mL (≈ 83.1 µM) | > 100 µg/mL | 50 µg/mL (≈ 166 µM) | 12.5 µg/mL (≈ 41.6 µM) | 12.5 µg/mL (≈ 41.6 µM) | 12.5 µg/mL (≈ 41.6 µM) | > 100 µg/mL | > 100 µg/mL | 25 µg/mL (≈ 83.1 µM) | > 100 µg/mL | 6.2 µg/mL (≈ 20.6 µM) | 6.2 µg/mL (≈ 20.6 µM) | ≤ 100 µg/mL |  | 50 µg/mL (≈ 166 µM) | 50 µg/mL (≈ 166 µM) | 12.5 µg/mL (≈ 41.6 µM)
C=C1C(=O)c2ccccc2OC1c1cccc2ccccc12 (stereo not drawn) [Ex. 23, 3-methylene-2-(1-naphthyl) chromanone] | ≤ 3.1 µg/mL | 12.5 µg/mL (≈ 43.7 µM) | 50 µg/mL (≈ 175 µM) | > 100 µg/mL | 50 µg/mL (≈ 175 µM) | 6.2 µg/mL (≈ 21.7 µM) | 12.5 µg/mL (≈ 43.7 µM) | 6.2 µg/mL (≈ 21.7 µM) | > 100 µg/mL | > 100 µg/mL | > 100 µg/mL | > 100 µg/mL | 6.2 µg/mL (≈ 21.7 µM) | 6.2 µg/mL (≈ 21.7 µM) |  | > 100 µg/mL | 100 µg/mL (≈ 349 µM) | > 100 µg/mL | 
C=C1C(=O)c2ccccc2OC1c1cccc([N+](=O)[O-])c1 (stereo not drawn) [compound 9, 3'-nitro-3-methylene flavanone] | 6.2 µg/mL (≈ 22 µM) | 6.2 µg/mL (≈ 22 µM) | 50 µg/mL (≈ 178 µM) | 50 µg/mL (≈ 178 µM) | 50 µg/mL (≈ 178 µM) | 6.2 µg/mL (≈ 22 µM) | 12.5 µg/mL (≈ 44.4 µM) | 12.5 µg/mL (≈ 44.4 µM) | > 100 µg/mL | > 100 µg/mL | 50 µg/mL (≈ 178 µM) | 100 µg/mL (≈ 356 µM) | 6.2 µg/mL (≈ 22 µM) | 6.2 µg/mL (≈ 22 µM) |  | 100 µg/mL (≈ 356 µM) | 50 µg/mL (≈ 178 µM) | 50 µg/mL (≈ 178 µM) | 
C=C1C(=O)c2cc(C)ccc2OC1c1ccccc1 (stereo not drawn) [compound 19, 6-methyl-3-methylene flavanone] | 6.2 µg/mL (≈ 24.8 µM) | 6.2 µg/mL (≈ 24.8 µM) | 25 µg/mL (≈ 99.9 µM) | 25 µg/mL (≈ 99.9 µM) | 50 µg/mL (≈ 200 µM) | 6.2 µg/mL (≈ 24.8 µM) | 6.2 µg/mL (≈ 24.8 µM) | 6.2 µg/mL (≈ 24.8 µM) | > 100 µg/mL | > 100 µg/mL | 25 µg/mL (≈ 99.9 µM) | 25 µg/mL (≈ 99.9 µM) | 6.2 µg/mL (≈ 24.8 µM) | 6.2 µg/mL (≈ 24.8 µM) | ≤ 100 µg/mL |  | 25 µg/mL (≈ 99.9 µM) | 25 µg/mL (≈ 99.9 µM) | 25 µg/mL (≈ 99.9 µM)
